Converted amounts (≈) assume the structure as drawn.
What was measured:
[1] = test system: Staphylococcus aureus; experiment: Antibacterial activity against methicillin resistant Staphylococcus aureus USA400 assessed as reduction in bacterial cell growth incubated for 18 to 20 hrs by broth microdilution method; type: functional
[2] = test system: Staphylococcus aureus; experiment: Bactericidal activity against vancomycin resistant Staphylococcus aureus VRS11a assessed as reduction in bacterial cell growth incubated for 18 to 20 hrs followed by re-plating on tryptic soy agar plates at 37 degC for 18 hrs by broth microdilution assay; type: functional
[3] = test system: Enterococcus faecalis; experiment: Bactericidal activity against vancomycin resistant Enterococcus faecalis ATCC 51299 assessed as reduction in bacterial cell growth incubated for 18 to 20 hrs followed by re-plating on tryptic soy agar plates at 37 degC for 18 hrs by broth microdilution assay; type: functional
[4] = test system: Streptococcus pneumoniae; experiment: Bactericidal activity against Cephalosporin resistant Streptococcus pneumoniae ATCC 51916 assessed as reduction in bacterial cell growth incubated for 18 to 20 hrs followed by re-plating on tryptic soy agar plates at 37 degC for 18 hrs by broth microdilution assay; type: functional
[5] = test system: Staphylococcus aureus; experiment: Antibacterial activity against vancomycin resistant Staphylococcus aureus VRS10 assessed as reduction in bacterial cell growth incubated for 18 to 20 hrs by broth microdilution method; type: functional
[6] = test system: Staphylococcus aureus; experiment: Antibacterial activity against methicillin resistant Staphylococcus aureus NRS119 assessed as reduction in bacterial cell growth incubated for 18 to 20 hrs by broth microdilution method; type: functional
[7] = test system: Enterococcus faecium; experiment: Antibacterial activity against vancomycin resistant Enterococcus faecium ATCC 700221 assessed as reduction in bacterial cell growth incubated for 18 to 20 hrs by broth microdilution method; type: functional
[8] = test system: Staphylococcus aureus; experiment: Bactericidal activity against vancomycin resistant Staphylococcus aureus VRS12 assessed as reduction in bacterial cell growth incubated for 18 to 20 hrs followed by re-plating on tryptic soy agar plates at 37 degC for 18 hrs by broth microdilution assay; type: functional
[9] = test system: Staphylococcus aureus; experiment: Bactericidal activity against Staphylococcus aureus NRS107 assessed as reduction in bacterial cell growth incubated for 18 to 20 hrs followed by re-plating on tryptic soy agar plates at 37 degC for 18 hrs by broth microdilution assay; type: functional
[10] = test system: Staphylococcus aureus; experiment: Antibacterial activity against Staphylococcus aureus ATCC 6538 assessed as reduction in bacterial cell growth incubated for 18 to 20 hrs by broth microdilution method; type: functional
[11] = test system: Enterococcus faecium; experiment: Bactericidal activity against vancomycin resistant Enterococcus faecium ATCC 700221 assessed as reduction in bacterial cell growth incubated for 18 to 20 hrs followed by re-plating on tryptic soy agar plates at 37 degC for 18 hrs by broth microdilution assay; type: functional
[12] = test system: Staphylococcus epidermidis; experiment: Antibacterial activity against methicillin resistant Staphylococcus epidermidis NRS101 assessed as reduction in bacterial cell growth incubated for 18 to 20 hrs by broth microdilution method; type: functional
[13] = test system: Listeria monocytogenes; experiment: Bactericidal activity against Listeria monocytogenes ATCC 19111 assessed as reduction in bacterial cell growth incubated for 18 to 20 hrs followed by re-plating on tryptic soy agar plates at 37 degC for 18 hrs by broth microdilution assay; type: functional
[14] = test system: Staphylococcus epidermidis; experiment: Bactericidal activity against methicillin resistant Staphylococcus epidermidis NRS101 assessed as reduction in bacterial cell growth incubated for 18 to 20 hrs followed by re-plating on tryptic soy agar plates at 37 degC for 18 hrs by broth microdilution assay; type: functional
[15] = test system: Staphylococcus aureus; experiment: Antibacterial activity against vancomycin resistant Staphylococcus aureus VRS11a assessed as reduction in bacterial cell growth incubated for 18 to 20 hrs by broth microdilution method; type: functional
[16] = test system: Staphylococcus aureus; experiment: Antibacterial activity against Staphylococcus aureus NRS107 assessed as reduction in bacterial cell growth incubated for 18 to 20 hrs by broth microdilution method; type: functional
[17] = test system: Streptococcus pneumoniae; experiment: Bactericidal activity against Methicillin resistant Streptococcus pneumoniae ATCC 700677 assessed as reduction in bacterial cell growth incubated for 18 to 20 hrs followed by re-plating on tryptic soy agar plates at 37 degC for 18 hrs by broth microdilution assay; type: functional
[18] = test system: Staphylococcus aureus; experiment: Bactericidal activity against methicillin resistant Staphylococcus aureus NRS119 assessed as reduction in bacterial cell growth incubated for 18 to 20 hrs followed by re-plating on tryptic soy agar plates at 37 degC for 18 hrs by broth microdilution assay; type: functional
[19] = test system: Staphylococcus aureus; experiment: Bactericidal activity against Staphylococcus aureus ATCC 6538 assessed as reduction in bacterial cell growth incubated for 18 to 20 hrs followed by re-plating on tryptic soy agar plates at 37 degC for 18 hrs by broth microdilution assay; type: functional
[20] = test system: Listeria monocytogenes; experiment: Antibacterial activity against Listeria monocytogenes ATCC 19111 assessed as reduction in bacterial cell growth incubated for 18 to 20 hrs by broth microdilution method; type: functional
[21] = test system: Staphylococcus aureus; experiment: Bactericidal activity against methicillin-resistant Staphylococcus aureus USA300 assessed as reduction in bacterial cell growth incubated for 18 to 20 hrs followed by re-plating on tryptic soy agar plates at 37 degC for 18 hrs by broth microdilution assay; type: functional
[22] = test system: Staphylococcus aureus; experiment: Bactericidal activity against vancomycin resistant Staphylococcus aureus VRS10 assessed as reduction in bacterial cell growth incubated for 18 to 20 hrs followed by re-plating on tryptic soy agar plates at 37 degC for 18 hrs by broth microdilution assay; type: functional
[23] = test system: Staphylococcus aureus; experiment: Antibacterial activity against vancomycin resistant Staphylococcus aureus VRS12 assessed as reduction in bacterial cell growth incubated for 18 to 20 hrs by broth microdilution method; type: functional
[24] = test system: J774; experiment: Cytotoxicity against mouse J774 assessed as reduction in cell viability at 16 ug/ml incubated for 24 hrs by MTS assay; type: cell-based; settings: j774, 24 h
[25] = Solubility of compound in PBS after 2 hrs by turbidity based absorbance analysis; type: physicochemical

Q: With `C/C(=N\NC(=N)N)c1sc(-c2ccc(C#Cc3ccccn3)cc2)nc1C` as the molecule, how does the MIC [1] read?
A: 32 µg/mL (≈ 85.5 µM)

Q: With `C/C(=N\NC(=N)N)c1sc(-c2ccc(C#Cc3ccoc3)cc2)nc1C` as the molecule, how does the MIC [1] read?
A: 4 µg/mL (≈ 11 µM)

Q: Which MIC [1] does the source give for `C/C(=N\NC(=N)N)c1sc(-c2ccc(C#Cc3ccc(C(=O)O)c(C)c3)cc2)nc1C` here?
A: > 64 µg/mL

Q: For `COC(=O)c1ccccc1C#Cc1ccc(-c2nc(C)c(/C(C)=N/NC(=N)N)s2)cc1`, which MIC [1] is on record?
A: 16 µg/mL (≈ 37.1 µM)

Q: For `C/C(=N\NC(=N)N)c1sc(-c2ccc(C#Cc3cccc([N+](=O)[O-])c3)cc2)nc1C`, which MIC [1] is on record?
A: 64 µg/mL (≈ 153 µM)

Q: With `C/C(=N\NC(=N)N)c1sc(-c2ccc(C#Cc3ccccc3[N+](=O)[O-])cc2)nc1C` as the molecule, how does the MIC [1] read?
A: > 64 µg/mL

Q: With `C/C(=N\NC(=N)N)c1sc(-c2ccc(C#Cc3ccsc3)cc2)nc1C` as the molecule, how does the MIC [1] read?
A: > 64 µg/mL

Q: For `C/C(=N\NC(=N)N)c1sc(-c2ccc(C#Cc3ccc(C(N)=S)cc3)cc2)nc1C`, which MIC [1] is on record?
A: 64 µg/mL (≈ 148 µM)

Q: Which results are given for `CC(=O)NC[C@H]1CN(c2ccc(N3CCOCC3)c(F)c2)C(=O)O1` [LINEZOLID]?
A: MBC [2]: 16 µg/mL (≈ 47.4 µM); MBC [3]: 32 µg/mL (≈ 94.9 µM); MBC [4]: 16 µg/mL (≈ 47.4 µM); MIC [5]: 1 µg/mL (≈ 2.96 µM); MIC [6]: 32 µg/mL (≈ 94.9 µM); MIC [7]: ≤ 0.5 µg/mL; MBC [8]: 16 µg/mL (≈ 47.4 µM); MBC [9]: 16 µg/mL (≈ 47.4 µM); MIC [10]: 1 µg/mL (≈ 2.96 µM); MBC [11]: 8 µg/mL (≈ 23.7 µM); MIC [12]: ≤ 0.5 µg/mL; MBC [13]: 32 µg/mL (≈ 94.9 µM); MBC [14]: 16 µg/mL (≈ 47.4 µM); MIC [15]: 1 µg/mL (≈ 2.96 µM); MIC [1]: 1 µg/mL (≈ 2.96 µM); MIC [16]: 1 µg/mL (≈ 2.96 µM); MBC [17]: 32 µg/mL (≈ 94.9 µM); MBC [18]: > 64 µg/mL; MBC [19]: 16 µg/mL (≈ 47.4 µM); MIC [20]: ≤ 0.5 µg/mL; MBC [21]: 32 µg/mL (≈ 94.9 µM); MBC [22]: 16 µg/mL (≈ 47.4 µM); MIC [23]: 1 µg/mL (≈ 2.96 µM)

Q: For `C/C(=N\NC(=N)N)c1sc(-c2ccc(C#Cc3ccccc3)cc2)nc1C`, which Activity [24] is on record?
A: Toxic

Q: And the solubility kinetic at 2 h [25]?
A: 2.5 µM (≈ 0.934 µg/mL)

Q: For `C/C(=N\NC(=N)N)c1sc(-c2ccc(C#Cc3cncnc3)cc2)nc1C`, which MIC [1] is on record?
A: > 64 µg/mL

Q: With `CCCCc1ccc(-c2nc(C)c(/C(C)=N/NC(=N)N)s2)cc1` as the molecule, how does the solubility kinetic at 2 h [25] read?
A: 65 µM (≈ 21.4 µg/mL)

Q: With `C/C(=N/NC(=N)N)c1ccc(C#Cc2ccc(-c3nc(C)c(/C(C)=N/NC(=N)N)s3)cc2)cc1` as the molecule, how does the MIC [1] read?
A: > 64 µg/mL

Q: With `C/C(=N\NC(=N)N)c1sc(-c2ccc(C#Cc3cccc(N)c3)cc2)nc1C` as the molecule, how does the MIC [1] read?
A: 4 µg/mL (≈ 10.3 µM)

Q: For `C/C(=N\NC(=N)N)c1sc(-c2ccc(C#Cc3ccccc3O)cc2)nc1C`, which MIC [1] is on record?
A: > 64 µg/mL
